Data from patent US20240246960A1 (adMare Therapeutics Society, priority 2021, published 2024).
Where two headings read alike, the source gives them in different places.

What was measured:
DNA-PK = biological target: T1, DNA-PK (Homo sapiens, UniProt P78527); assay: DNA-PK Assay for Biochemical Enzymatic Inhibition (ADP Glo Kinase assay); conditions: Table 2
T1 construct: purchased Invitrogen PR9107A
How it was run: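 Human DNA-PK (25 ng) preincubated 15 min with compounds (ten three-fold dilutions) in HEPES pH 7.5, MgCl2, KCl, calf thymus DNA buffer, then substrate 434.4 μM and ATP 64.4 μM (final) for 60 min at room temperature. ADP-Glo luminescence; percent inhibition fitted by four-parameter regression for IC50.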

[1] = system: pH2AX induction in HCT116 ATM−/− multicellular tumour spheroids; assay: Prodrug radiation sensitization in multicellular tumour spheroids (pH2AX induction following radiation); type: cell-based; conditions: Homo sapiens, HCT-116, 20 Gy
Description: Prodrug compounds were assayed to determine their potency in 3D multicellular spheroids in media maintained under 20% vs […]. Multicellular tumour spheroids were grown to approximately 0.5 mm in diameter and irradiated with 20 Gy in combination with inhibitor test compounds to determine their potency using HCT116 and FaDu cell lines. Experiments were carried out in 96 well plates containing 0.7 mls of MEM media containing 10% FBS and 10 mM glucose under […] at 37° C. Following dilution of compounds 1:1000 from DMSO stocks, compounds were serially diluted from 10 μM down to 3.5 nM and 5-10 spheroids added. 96 well plates were constantly stirred to avoid spheroids settling during the course of the experiment. Endpoints were pDNA-PK (ser 2056) or pH2AX (ser 139) status in spheroid cryosections taken 1 or 2 hours following radiation and fixed immediately in formalin. Using tumour cell lines deficient in ATM improved the assay signal to noise and gH2AX readout. Using this assay prodrug activity could be compared in the more oxygenated outer spheroid layers versus less oxygenated hypoxic central cell layers.

[2] = Microsomal stability assay, human liver microsomes; type: in vitro ADME; conditions: for Microsomal Stability (human) % rem. 60 min: Example 11; for microsomal CLint at 0.1 uM: both sexes, human, liver microsomes, pH 7.4, Example 11
Description: Samples were then mixed and centrifuged. Supernatants were used for HPLC-MS/MS analysis. […] Peak areas corresponding to the test compound were recorded.

[3] = biological target: T2, DNA-PK phosphorylation at Serine 2056 (Homo sapiens, UniProt P78527); assay: Cellular Assay for Inhibition of DNA-PK Phosphorylation at Serine 2056 (FaDu cells, neocarzinostatin, sandwich ELISA); type: cell-based; conditions: Table 2
T2 construct: host or cells: FaDu
How it was run: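 Readout was pSer2056 and total DNA-PK, measured by sandwich ELISA on protein-normalized lysates. Prior to lysis, compound was applied to FaDu cells for 1 h (0.3% DMSO), followed by 2 h of 1 μg/mL neocarzinostatin. IC50 values were fitted from log concentration versus % inhibition normalized to DMSO and NCS controls.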

[4] = Microsomal stability assay, mouse liver microsomes; conditions: Example 11; for microsomal CLint at 0.1 uM: male, CD-1, mouse, liver microsomes, pH 7.4, Microsomal Stability Mouse Clint
FaDu cell line = assay: Prodrug activation in hypoxic stirred tumour cell suspensions; type: in vitro ADME; conditions: 10 μM, 4 hours
Description: Prodrug compounds were assayed to determine their stability and rate of activation in stirred cell suspensions under 0.2 vs 5% oxygen. Compounds were diluted 1:1000 from DMSO stocks to 10 μM final concentration in tumour cell suspensions (1% by cell volume) in MEM media containing 10% FBS, 10 mM glucose & 3.7 g/L sodium bicarbonate. Cell lines assayed included A253, A549, Detroit562, FaDu, HCT116, HEP G2, HT29, SCC25, SCC9, SiHa & TC32. Compounds and cells were then incubated for 4 hours under constant mixing at 37° C. under 5% CO2 and either 0.2 or 5% O2. Following the incubation period cellular activation of the compounds was assayed via MeOH extraction and HPLC quantification.

[5] = 5% O2, inner layers, read-out: Prodrug 5% O2 Inner layers EC50
[6] = 5% O2, outer layers, read-out: Prodrug 5% O2 Outer layers EC50
[7] = 20% O2, outer layers, read-out: Prodrug 20% O2 Outer layers EC50

Row | IC50 (DNA-PK) [nM] | Microsomal Stability (human) % rem. 60 min [2] | microsomal CLint at 0.1 uM [2] [µL/min/mg] | IC50 [3] [nM] | Microsomal Stability (mouse) % rem. 60 min [4] | microsomal CLint at 0.1 uM [4] [µL/min/mg] | Fraction of prodrug converted to active form, Hypoxic 0.2% O2 (FaDu cell line) | Fraction of prodrug converted to active form, Oxic 5% O2 (FaDu cell line) | SMILES | EC50 [1, 5] [nM] | EC50 [1, 6] [nM] | EC50 [1, 7] [nM]
1 | – | E (% remaining = 0-25%) | < 116 | – | E (% remaining = 0-25%) | > 116 | B (B is 0.05 to 0.15) | D (D is 0 to 0.02) | CC(c1cnc([N+](=O)[O-])n1C)N(c1cnc2cc(N3CCOCC3)nc(OC3CCC(Nc4ncc(C(F)(F)F)cn4)CC3)c2c1)S(C)(=O)=O (stereo not shown) [LFA024, N-[1-(3-Methyl-2-nitro-imidazol-4-yl)ethyl]-N-[7-morpholino-5-[4-[[5-(trifluoromethyl)pyrimidin-2-yl]amino]cyclohexoxy]-1,6-naphthyridin-3-yl]methanesulfonamide] | 10 to 500 | 1000 to 10000 | 10000 to 100000
2 | – | E (% remaining = 0-25%) | > 116 | – | E (% remaining = 0-25%) | > 116 | B (B is 0.05 to 0.15) | C (C is 0.02 to 0.05) | CC(c1cnc([N+](=O)[O-])n1C)N(c1cnc2cc(N3CCOCC3)nc(OC3CCC(Nc4ncc(C#N)cn4)CC3)c2c1)S(C)(=O)=O (stereo not shown) [LFA027, N-[5-[4-[(5-Cyanopyrimidin-2-yl)amino]cyclohexoxy]-7-morpholino-1,6-naphthyridin-3-yl]-N-[1-(3-methyl-2-nitro-imidazol-4-yl)ethyl]methanesulfonamide] | 10 to 500 | 500 to 1000 | 1000 to 10000

The next lines start with the compound.

Row | SMILES | IC50 (DNA-PK) [nM] | Microsomal Stability (human) % rem. 60 min [2] | microsomal CLint at 0.1 uM [2] [µL/min/mg] | IC50 [3] [nM] | Microsomal Stability (mouse) % rem. 60 min [4] | microsomal CLint at 0.1 uM [4] [µL/min/mg] | Fraction of prodrug converted to active form, Hypoxic 0.2% O2 (FaDu cell line) | Fraction of prodrug converted to active form, Oxic 5% O2 (FaDu cell line) | EC50 [1, 5] [nM] | EC50 [1, 6] [nM] | EC50 [1, 7] [nM]
3 | CC(c1cnc([N+](=O)[O-])n1C)N(c1cnc2cc(N3CCOCC3)nc(OC3CCC(Nc4ncccn4)CC3)c2c1)S(C)(=O)=O (stereo not shown) [LFA010, N-[1-(3-Methyl-2-nitro-imidazol-4-yl)ethyl]-N-[7-morpholino-5-[4-(pyrimidin-2-ylamino)cyclohexoxy]-1,6-naphthyridin-3-yl]methanesulfonamide] | 10 to 150 | E (% remaining = 0-25%) | < 116 | 1000 to 10000 | E (% remaining = 0-25%) | > 116 | A (A is 0.15 to 1) | C (C is 0.02 to 0.05) | 10 to 500 | 10 to 500 | 1000 to 10000
4 | Cn1c(CN(c2cnc3cc(N4CCOCC4)nc(OC4CCC(Nc5ncc(C(F)(F)F)cn5)CC4)c3c2)S(C)(=O)=O)cnc1[N+](=O)[O-] (stereo not shown) [LFA023, N-[(3-Methyl-2-nitro-imidazol-4-yl)methyl]-N-[7-morpholino-5-[4-[[5-(trifluoromethyl)pyrimidin-2-yl]amino]cyclohexoxy]-1,6-naphthyridin-3-yl]methanesulfonamide] | – | F (% remaining = 25-50%) | < 116 | – | – | – | B (B is 0.05 to 0.15) | D (D is 0 to 0.02) | 500 to 1000 | 1000 to 10000 | 1000 to 10000
5 | Cn1c(CN(c2cnc3cc(N4CCOCC4)nc(OC4CCC(Nc5ncc(C#N)cn5)CC4)c3c2)S(C)(=O)=O)cnc1[N+](=O)[O-] (stereo not shown) [LFA026, N-[5-[4-[(5-Cyanopyrimidin-2-yl)amino]cyclohexoxy]-7-morpholino-1,6-naphthyridin-3-yl]-N-[(3-methyl-2-nitro-imidazol-4-yl)methyl]methanesulfonamide] | – | E (% remaining = 0-25%) | > 116 | – | – | – | B (B is 0.05 to 0.15) | D (D is 0 to 0.02) | 10 to 500 | 1000 to 10000 | 1000 to 10000
